Five molecules from PubChem BioAssay AID180 (DTP/NCI, 2004) can be followed below.

This test relates to BDF1 mice, Adenocarcinoma 755 s.c., tumor weight T/C. Put plainly: NCI In Vivo Anticancer Drug Screen. Data for tumor model Adenocarcinoma 755 (subcutaneous) in B6D2F1 (BDF1) mice. The note with it: endpoint: mean tumor weight, higher = larger tumour. As for the experimental part:
The antitumor activity of compounds was measured in mice bearing transplantable tumors. Survival or tumor size were measured and the results are expressed as the measurement made in the treated group (T) divided by the measurement made in the vehicle treated control group (C). The tumor model used in this assay is Adenocarcinoma 755 (subcutaneous) in B6D2F1 (BDF1) mice

[1] abbreviates: dose: 30.0 mg/kg/injection, schedule: Q01DX011 (ip), vehicle: carboxymethylcellulose (CMC).

Where “and” joins values, the source holds several entries; their conditions need not be identical. Equal values may be shown once.

On to `COB1OB(OC)OB(OC)O1`, for which the T/C by setting is: (dose: 18.75 mg/kg/injection, schedule: Q01DX011 (ip), vehicle: water) 78 % of control; (dose: 250.0 mg/kg/injection, schedule: Q#A X022 (oral), vehicle: water) 64 % of control; (dose: 335.0 mg/kg/injection, schedule: Q01DX011 (ip), vehicle: other) 51 % of control; (dose: 375.0 mg/kg/injection, schedule: Q01DX011 (im), vehicle: other) 59 % of control; (dose: 375.0 mg/kg/injection, schedule: Q01DX011 (ip), vehicle: other) 75 % of control; (dose: 375.0 mg/kg/injection, schedule: Q01DX011 (ip), vehicle: water) 61 % of control. The T/C is 81 % of control (dose: 375.0 mg/kg/injection, schedule: Q01DX011 (sc), vehicle: other); 40 % of control (dose: 450.0 mg/kg/injection, schedule: Q#A X022 (sc), vehicle: other); 41 % of control and 51 % of control (dose: 500.0 mg/kg/injection, schedule: Q01DX011 (ip), vehicle: other); 97 % of control and 75 % of control (dose: 500.0 mg/kg/injection, schedule: Q01DX011 (oral), vehicle: other); 43 % of control (dose: 500.0 mg/kg/injection, schedule: Q#A X022 (oral), vehicle: water); 53 % of control (dose: 600.0 mg/kg/injection, schedule: Q01DX011 (oral), vehicle: other). Moreover, the T/C is 109 % of control (dose: 600.0 mg/kg/injection, schedule: Q## X012 (oral), vehicle: other); 28 % of control (dose: 600.0 mg/kg/injection, schedule: Q#A X022 (im), vehicle: other); 74 % of control (dose: 600.0 mg/kg/injection, schedule: Q#A X022 (sc), vehicle: other); 65 % of control and 74 % of control (dose: 750.0 mg/kg/injection, schedule: Q01DX011 (im), vehicle: other); 43 % of control and 47 % of control and 55 % of control (dose: 750.0 mg/kg/injection, schedule: Q01DX011 (ip), vehicle: other); 20 % of control (dose: 750.0 mg/kg/injection, schedule: Q01DX011 (ip), vehicle: water). For the same molecule, the T/C is 71 % of control (dose: 750.0 mg/kg/injection, schedule: Q01DX011 (oral), vehicle: other); 71 % of control (dose: 750.0 mg/kg/injection, schedule: Q02DX006 (ip), vehicle: other); 78 % of control (dose: 750.0 mg/kg/injection, schedule: Q## X006 (ip), vehicle: other); 7 % of control and 21 % of control (dose: 750.0 mg/kg/injection, schedule: Q#A X022 (oral), vehicle: water); 43 % of control (dose: 750.0 mg/kg/injection, schedule: Q#A X022 (sc), vehicle: other); 77 % of control (dose: 800.0 mg/kg/injection, schedule: Q01DX011 (im), vehicle: other). The T/C is 50 % of control (dose: 800.0 mg/kg/injection, schedule: Q#A X022 (im), vehicle: other); 48 % of control and 56 % of control (dose: 1000.0 mg/kg/injection, schedule: Q01DX011 (im), vehicle: other); 14 % of control and 37 % of control (dose: 1000.0 mg/kg/injection, schedule: Q01DX011 (ip), vehicle: other); 47 % of control (dose: 1000.0 mg/kg/injection, schedule: Q01DX011 (oral), vehicle: saline); 37 % of control (dose: 1000.0 mg/kg/injection, schedule: Q01DX011 (oral), vehicle: water); 45 % of control (dose: 1000.0 mg/kg/injection, schedule: Q02DX006 (ip), vehicle: other). Besides, the T/C was 63 % of control (dose: 1000.0 mg/kg/injection, schedule: Q## X006 (ip), vehicle: other); 84 % of control (dose: 1000.0 mg/kg/injection, schedule: Q## X012 (oral), vehicle: other); 8 % of control (dose: 1000.0 mg/kg/injection, schedule: Q#A X022 (oral), vehicle: water); 36 % of control (dose: 1000.09 mg/kg/injection, schedule: Q01DX011 (oral), vehicle: other); 43 % of control (dose: 1125.0 mg/kg/injection, schedule: Q01DX011 (ip), vehicle: other); 22 % of control (dose: 1200.0 mg/kg/injection, schedule: Q01DX011 (im), vehicle: other). For the same molecule, the T/C is 38 % of control (dose: 1250.0 mg/kg/injection, schedule: Q01DX011 (sc), vehicle: other); 2 % of control and 10 % of control (dose: 1250.0 mg/kg/injection, schedule: Q#A X022 (oral), vehicle: water); 16 % of control and 30 % of control (dose: 1500.0 mg/kg/injection, schedule: Q01DX011 (im), vehicle: other); 6 % of control (dose: 1500.0 mg/kg/injection, schedule: Q01DX011 (ip), vehicle: water); 16 % of control (dose: 1500.0 mg/kg/injection, schedule: Q01DX011 (oral), vehicle: saline); 16 % of control (dose: 1500.0 mg/kg/injection, schedule: Q01DX011 (oral), vehicle: water). Besides, the T/C runs as follows: (dose: 1500.0 mg/kg/injection, schedule: Q01DX011 (sc), vehicle: other) 22 % of control; (dose: 1500.0 mg/kg/injection, schedule: Q02DX006 (ip), vehicle: other) 37 % of control; (dose: 1500.0 mg/kg/injection, schedule: Q## X006 (ip), vehicle: other) 58 % of control; (dose: 1500.0 mg/kg/injection, schedule: Q## X012 (oral), vehicle: other) 51 % of control; (dose: 2000.0 mg/kg/injection, schedule: Q01DX011 (oral), vehicle: saline) 14 % of control; (dose: 2000.0 mg/kg/injection, schedule: Q01DX011 (oral), vehicle: water) 7 % of control. Besides, the T/C was 15 % of control (dose: 2000.0 mg/kg/injection, schedule: Q## X012 (oral), vehicle: other); 4 % of control (dose: 2500.0 mg/kg/injection, schedule: Q01DX011 (oral), vehicle: saline); 22 % of control (dose: 2500.0 mg/kg/injection, schedule: Q## X012 (oral), vehicle: other).

For `CC1CCN2CCC(O)C12` (centres undefined), the T/C (dose: 7.0 mg/kg/injection, schedule: Q01DX011 (ip), vehicle: carboxymethylcellulose (CMC)) is 98 % of control.

For `O=S(=O)(O)c1cccnc1`, the T/C was 68 % of control (dose: 19.63 mg/kg/injection, schedule: Q01DX011 (ip), vehicle: carboxymethylcellulose (CMC)); 91 % of control and 101 % of control (dose: 37.36 mg/kg/injection, schedule: Q01DX011 (ip), vehicle: carboxymethylcellulose (CMC)); 99 % of control (dose: 39.25 mg/kg/injection, schedule: Q01DX011 (ip), vehicle: carboxymethylcellulose (CMC)); 108 % of control (dose: 62.5 mg/kg/injection, schedule: Q01DX011 (ip), vehicle: methylcellulose (MC)); 152 % of control (dose: 78.5 mg/kg/injection, schedule: Q01DX011 (ip), vehicle: carboxymethylcellulose (CMC)); 76 % of control (dose: 125.0 mg/kg/injection, schedule: Q01DX011 (ip), vehicle: methylcellulose (MC)). In addition, the T/C is 79 % of control (dose: 157.0 mg/kg/injection, schedule: Q01DX011 (ip), vehicle: carboxymethylcellulose (CMC)); 95 % of control (dose: 250.0 mg/kg/injection, schedule: Q01DX011 (ip), vehicle: methylcellulose (MC)); 120 % of control (dose: 298.9 mg/kg/injection, schedule: Q01DX011 (ip), vehicle: carboxymethylcellulose (CMC)).

On to `CCCN(C)/N=N/c1nc[nH]c1C(N)=O`, for which the T/C is 91 % of control (dose: 5.0 mg/kg/injection, schedule: Q01DX011 (ip), vehicle: carboxymethylcellulose (CMC)); 87 % of control (dose: 7.5 mg/kg/injection, schedule: Q01DX011 (ip), vehicle: carboxymethylcellulose (CMC)); 51 % of control (dose: 10.0 mg/kg/injection, schedule: Q01DX011 (ip), vehicle: carboxymethylcellulose (CMC)); 47 % of control (dose: 15.0 mg/kg/injection, schedule: Q01DX011 (ip), vehicle: carboxymethylcellulose (CMC)); 39 % of control (dose: 20.0 mg/kg/injection, schedule: Q01DX011 (ip), vehicle: carboxymethylcellulose (CMC)); 30 % of control under setting [1]. Further, the T/C (dose: 40.0 mg/kg/injection, schedule: Q01DX011 (ip), vehicle: carboxymethylcellulose (CMC)) is 37 % of control.

Consider `CC(=O)OCC1OC(n2cnc3c(=O)[nH]cnc32)C(OC(C)=O)C1OC(C)=O` (centres undefined), for which the T/C under setting [1] was 55 % of control; the T/C (dose: 60.0 mg/kg/injection, schedule: Q01DX011 (ip), vehicle: carboxymethylcellulose (CMC)) was 65 % of control; the T/C (dose: 120.0 mg/kg/injection, schedule: Q01DX011 (ip), vehicle: carboxymethylcellulose (CMC)) was 80 % of control; the T/C (dose: 240.0 mg/kg/injection, schedule: Q01DX011 (ip), vehicle: carboxymethylcellulose (CMC)) was 67 % of control; the T/C (dose: 400.0 mg/kg/injection, schedule: Q01DX011 (ip), vehicle: carboxymethylcellulose (CMC)) is 110 % of control; the T/C (dose: 600.0 mg/kg/injection, schedule: Q01DX011 (ip), vehicle: carboxymethylcellulose (CMC)) is 117 % of control.

For orientation: T/C means the result in the treated group divided by that in the control group, in per cent.
